Structures are written as SMILES. Structures can show the parent of a compound that is named as a salt.

The target of one experiment is T1, human STING (hSTING) (Homo sapiens, UniProt Q86WV6).
T1 construct: host or cells: HEK-Blue ISG cells (HEK293-derived SEAP reporter line)
T1 sequence (Q86WV6 whole entry H232R): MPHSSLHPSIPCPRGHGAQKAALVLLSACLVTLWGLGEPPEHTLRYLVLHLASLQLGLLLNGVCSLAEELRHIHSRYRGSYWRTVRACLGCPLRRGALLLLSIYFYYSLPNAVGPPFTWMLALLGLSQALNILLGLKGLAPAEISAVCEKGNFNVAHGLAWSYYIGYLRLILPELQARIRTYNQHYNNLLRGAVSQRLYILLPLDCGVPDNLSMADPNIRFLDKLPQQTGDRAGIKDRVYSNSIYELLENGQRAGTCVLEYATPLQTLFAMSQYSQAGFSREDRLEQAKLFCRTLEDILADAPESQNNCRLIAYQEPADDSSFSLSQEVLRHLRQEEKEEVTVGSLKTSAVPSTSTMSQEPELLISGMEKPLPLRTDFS
In words: Inhibition test of intracellular human STING (hSTING) pathway using SEAP reporter cells (HEK-Blue ISG), stimulation with Compound 3. The settings on record: Compound 3 10 nM stimulation, 21 hours. Also noted: hSTING inhibitory activity: scale not given here. The format is cell-based. In a few lines: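 HEK-Blue ISG cells with IRF-inducible SEAP reporter, pretreated 1 h with compound (final 0.1 to 10 μM), then stimulated with Compound 3 (final 10 nM) for 21 h at 37° C. Supernatant SEAP measured colorimetrically; IC50 from log-concentration regression, normalized to stimulated (100%) and unstimulated (0%) controls.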
`CN(C)n1c(Nc2c[nH]c3ccc(F)c(F)c23)nc2cc(C(F)(F)F)cc(F)c21` [Embodiment 278, N2-(4,5-difluoro-1H-indol-3-yl)-7-fluoro-N1,N1-dimethyl-5-(trifluoromethyl)-1H-benzo[d] imidazole-1,2-diamine]: the hSTING inhibitory activity result was “* *”.
As for `Cc1ccc2[nH]cc(Nc3nc4cc(C(F)(F)F)cc(F)c4n3N(C)C)c2c1` [Embodiment 280, 7-fluoro-N1,N1-dimethyl-N2-(5-methyl-1H-indol-3-yl)-5-(trifluoromethyl)-1H-benzo[d]imidazole-1,2-diamine], the hSTING inhibitory activity result is reported as “* * *”.
Same read-out and setting: the value for `COC(=O)c1ccc2[nH]cc(Nc3nc4cc(Oc5ccccc5)ccc4[nH]3)c2c1` [Example 22, methyl 3-[(5-phenoxy-1H-benzo[d]imidazol-2-yl)amino]-1H-indole-5-carboxylate] was “* *”.
Still for that read-out and setting: the value for `Cn1c(Nc2c[nH]c3ccc(Cl)nc23)nc2cc(F)c(Oc3ccccc3)cc21` [Embodiment 194, N-(5-Chloro-1H-pyrrolo[3,2-b]pyridin-3-yl)-5-fluoro-1-methyl-6-phenoxy-1H-benzo[d]imidazol-2-amine] was “* *”.
On the same count and under the same terms, then `Cn1c(Nc2c[nH]c3ccc(Cl)cc23)nc2cc(C(F)(F)F)c(F)c(F)c21` [Embodiment 274, N-(5-Chloro-1H-indol-3-yl)-6,7-difluoro-1-methyl-5-(trifluoromethyl)-1H-benzo[d]imidazol-2-amine], with “* * *”.
Consider `C[C@@H](O)Cn1c(Nc2c[nH]c3ccc(Cl)cc23)nc2cc(C(F)(F)F)ccc21` [Embodiment 239, (R)-1-{2-[(5-chloro-1H-indol-3-yl)amino]-5-(trifluoromethyl)-1H-benzo[d]imidazol-1-yl}propan-2-oar], for which the hSTING inhibitory activity result is given as “* *”.
For `FC(F)(F)c1ccc2[nH]cc(Nc3nc4cc(Oc5ccccc5)ccc4[nH]3)c2n1` [Embodiment 55, 5-phenoxy-N-[5-(trifluoromethyl)-1H-pyrrolo[3,2-b]pyridin-3-yl]-1H-benzo[d]imidazol-2-amine], the hSTING inhibitory activity entry is “* *”.
Take `Cn1c(Nc2c[nH]c3ccc(Br)nc23)nc2ccc(Oc3ccccc3)cc21` [Embodiment 40, N-(5-bromo-1H-pyrrolo[3,2-b]pyridin-3-yl)-1-methyl-6-phenoxy-1H-benzo[d]imidazol-2-amine]: the hSTING inhibitory activity result is “* * *”.
Take `Cn1c(Nc2c[nH]c3ccc(Br)cc23)nc2ccc(Oc3ccccc3)cc21` [Embodiment 39, N-(5-bromo-1H-indol-3-yl)-1-methyl-6-phenoxy-1H-benzo[d]imidazol-2-amine]: the hSTING inhibitory activity result is given as “* *”.
With `COC(=O)c1cccc2[nH]c(Nc3c[nH]c4ccc(Br)cc34)nc12` [Example 20, methyl 2-[(5-bromo-1H-indol-3-yl)amino]-1H-benzo[d]imidazole-4-carboxylate], the hSTING inhibitory activity result is “* *”.

Still in this experiment, the particulars now being: Compound 3 10 nM stimulation, 21 hours, read-out: hSTING inhibitory activity.
Regarding `CN(C)C(=O)Cn1c(Nc2c[nH]c3ccc(Cl)cc23)nc2cc(C(F)(F)F)ccc21` [Embodiment 229, 2-{2-[(5-chloro-1H-indol-3-yl)amino]-5-(trifluoromethyl)-1H-benzo [d]imidazol-1-yl}-N,N-dimethyl Acetamide], the IC50 is at least 10 µM.
On the same count and under the same terms, the value for `CN(C)CC#Cc1ccc2[nH]c(Nc3c[nH]c4ccc(Cl)nc34)nc2c1` [Embodiment 146, N-(5-Chloro-1H-pyrrolo[3,2-b]pyridin-3-yl)-5-[3-(dimethylamino)prop-1-yn-1-yl]-1H-benzo[d] Imidazol-2-amine] was at least 10 µM.
Same read-out and setting: the value for `c1ccc(Oc2ccc3[nH]c(Nc4c[nH]c5c(-c6ccncc6)ccnc45)nc3c2)cc1` [Embodiment 163, 5-phenoxy-N-[7-(pyridin-4-yl)-1H-pyrrolo[3,2-b]pyridin-3-yl]-1H-benzo[d]imidazol-2-amine] was at least 10 µM; that for `COCCn1c(Nc2c[nH]c3ccc(Cl)nc23)nc2c(F)c(F)ccc21` [Embodiment 200, N-(5-chloro-1H-pyrrolo[3,2-b]pyridin-3-yl)-4,5-difluoro-1-(2-methoxyethyl)-1H-benzo[d] imidazole-2-amine] was at least 10 µM; that for `Cc1ccc2c(c1)nc(Nc1c[nH]c3ccc(Cl)nc13)n2C` [Embodiment 156, N-(5-Chloro-1H-pyrrolo[3,2-b]pyridin-3-yl)-1,5-dimethyl-1H-benzo [d]imidazol-2-amine] was at least 10 µM.
For `CN(C)C(=O)c1cccc2c(Nc3nc4cc(Oc5ccccc5)ccc4[nH]3)c[nH]c12` [Embodiment 122, N,N-dimethyl-3-[(5-phenoxy-1H-benzo[d]imidazol-2-yl)amino]-1H-indole-7-carboxamide formate], the IC50 fell in the range of 1 to 10 µM.
`Brc1cccc2c(Nc3nc4ccccc4[nH]3)c[nH]c12` [Example 17, N-(7-bromo-1H-indol-3-yl)-1H-benzo[d]imidazol-2-amine]: the IC50 is at least 10 µM.
Same read-out and setting: then `c1ccc(-c2ccc3[nH]cc(Nc4nc5ccccc5[nH]4)c3c2)cc1` [Example 2, N-(5-phenyl-1H-indol-3-yl)-1H-benzo[d]imidazol-2-amine], with at least 10 µM.
The same measure, in the same setting: the value for `CN(C)Cc1ccccc1Oc1ccc2[nH]c(Nc3c[nH]c4ccc(Cl)nc34)nc2c1` [Embodiment 83, N-(5-chloro-1H-pyrrolo[3,2-b]pyridin-3-yl)-5-{2-[(dimethylamino)methyl]phenoxy}-1H-benzo [d]imidazole-2-amine formate] was at least 10 µM; that for `COCCn1c(Nc2c[nH]c3ccc(Cl)nc23)nc2cc(-c3ccccc3)ccc21` [Embodiment 181] was at least 10 µM; that for `Cn1c(Nc2c[nH]c3ccc(Cl)nc23)nc2c(F)cccc21` [Embodiment 155, N-(5-Chloro-1H-pyrrolo[3,2-b]pyridin-3-yl)-4-fluoro-1-methyl-1H-benzo[d]imidazol-2-amine] was at least 10 µM.
On the same count and under the same terms, then `N#Cc1cccc2[nH]c(Nc3c[nH]c4ccc(Cl)nc34)nc12` [Embodiment 113, 2-[(5-Chloro-1H-pyrrolo[3,2-b]pyridin-3-yl)amino]-1H-benzo [d]imidazole-4-carbonitrile], with at least 10 µM; and `Cn1c(Nc2c[nH]c3ccc(Cl)nc23)nc2c(F)c(F)ccc21` [Embodiment 183, N-(5-Chloro-1H-pyrrolo[3,2-b]pyridin-3-yl)-4,5-difluoro-1-methyl-1H-benzo[d]imidazol-2-amine], with at least 10 µM; and `COCCn1c(Nc2c[nH]c3ccc(Cl)nc23)nc2c(C(F)(F)F)cccc21` [Embodiment 167, N-(5-Chloro-1H-pyrrolo[3,2-b]pyridin-3-yl)-1-(2-methoxyethyl)-4-(trifluoromethyl)-1H-benzo[d] imidazole-2-amine], with at least 10 µM.
As for `Clc1ccc2[nH]cc(Nc3nc4cc(-c5ccc(CN6CCOCC6)cc5)ccc4[nH]3)c2n1` [Embodiment 98, N-(5-Chloro-1H-pyrrolo[3,2-b]pyridin-3-yl)-5-[4-(morpholinomethyl)phenyl]-1H-benzo[d] imidazol-2-amine], the IC50 was at least 10 µM.
On the same count and under the same terms, the value for `C=Cc1ccc2[nH]cc(Nc3nc4cc(C(F)(F)F)ccc4n3C)c2n1` [Embodiment 171, 1-methyl-5-(trifluoromethyl)-N-(5-vinyl-1H-pyrrolo[3,2-b]pyridin-3-yl)-1H-benzo[d]imidazol-2-amine] was 1 to 10 µM; that for `Clc1ccc2[nH]cc(Nc3nc4c(-c5cccnc5)cccc4[nH]3)c2n1` [Embodiment 147, N-(5-Chloro-1H-pyrrolo[3,2-b]pyridin-3-yl)-4-(pyridin-3-yl)-1H-benzo[d]imidazol-2-amine] was at least 10 µM.
On the same count and under the same terms, the value for `O=C(O)c1ccc2[nH]cc(Nc3nc4cc(Oc5ccccc5)ccc4[nH]3)c2c1` [Example 27, 3-[(5-phenoxy-1H-benzo[d]imidazol-2-yl)amino]-1H-indole-5-carboxylic acid] was at least 10 µM; that for `Cn1c(Nc2c[nH]c3ccc(Cl)nc23)nc2c(F)cc(F)cc21` [Embodiment 203, N-(5-Chloro-1H-pyrrolo[3,2-b]pyridin-3-yl)-4,6-difluoro-1-methyl-1H-benzo[d]imidazol-2-amine] was at least 10 µM; that for `COCCn1c(Nc2c[nH]c3ccc(Cl)nc23)nc2cc(Oc3cccnc3)ccc21` [Embodiment 206, N-(5-chloro-1H-pyrrolo[3,2-b]pyridin-3-yl)-1-(2-methylxhetyl)-5-(pyridin-3-yloxy)-1H-benzo[d] imidazol-2-amine] was at least 10 µM.
Same read-out and setting: the value for `Cn1cnc(-n2c(Nc3c[nH]c4ccc(Cl)cc34)nc3cc(C(F)(F)F)ccc32)c1` [Embodiment 227, N-(5-Chloro-1H-indol-3-yl)-1-(1-methyl-1H-imidazol-4-yl)-5-(trifluoromethyl)-1H-benzo[d] imidazole-2-amine] was at least 10 µM; that for `Cn1ccc(-c2ccnc3c(Nc4nc5cc(Oc6ccccc6)ccc5[nH]4)c[nH]c23)n1` [Embodiment 165, N-[7-(1-methyl-1H-pyrazol-3-yl)-1H-pyrrolo[3,2-b]pyridin-3-yl]-5-phenoxy-1H-benzo[d]imidazole-2-amine] was 1 to 10 µM.
For `c1ccc(Oc2ccc3[nH]c(Nc4c[nH]c5c(-c6cccnc6)ccnc45)nc3c2)cc1` [Embodiment 164, 5-phenoxy-N-[7-(pyridin-3-yl)-1H-pyrrolo[3,2-b]pyridin-3-yl]-1H-benzo[d]imidazol-2-amine], the IC50 was 1 to 10 µM.
For `Cn1c(Nc2c[nH]c3ccc(Cl)nc23)nc2ccc(Oc3ccc(C#N)cc3)cc21` [Embodiment 174, 4-({2-[(5-chloro-1H-pyrrolo[3,2-b]pyridin-3-yl)amino]-1-methyl-1H-benzo[d]imidazol-6-yl} Oxy)benzonitrile], the IC50 was at least 10 µM.
`O=[N+]([O-])c1cc2[nH]c(Nc3c[nH]c4ccc(Cl)nc34)nc2cc1F` [Embodiment 177, N-(5-Chloro-1H-pyrrolo[3,2-b]pyridin-3-yl)-5-fluoro-6-nitro-1H-benzo[d]imidazol-2-amine]: the IC50 was in the range of 1 to 10 µM.

These data come from patent publication US20240279205A1, “NOVEL BENZIMIDAZOLE DERIVATIVE” (Carna Biosciences, Inc., priority 2020, published 2024).
